Test results as given in publication PMC11284788, “NN1213 – A Potent, Long-Acting, and Selective Analog of Human Amylin” (Journal of Medicinal Chemistry, 2024).
Like-named read-outs stand apart in the source and are kept apart here. Numbered stars: 1 amine (or outer) side, 2 acyl side, 3 side chain; on linkers, the order of the positions; unused ones are H or OH. Bridge positions count the residues as written; N and C are the ends. Side chains are listed from the residue outwards. Peptide text beside a SMILES is read from it. * marks the point of attachment. C20 diacid = O=C(O)CCCCCCCCCCCCCCCCCCC(=O)*; γGlu = O=C(O)[C@H](CCC(=O)[*:2])N[*:1]; AEEA = NCCOCCOCC(=O)O

Legend:
hAMY3R = molecular target: T1, hAMY3R (Homo sapiens, UniProt O60896+P30988); experiment: scintillation proximity binding assay, hAMY3R membranes; design: expressed in transfected cells; host or cells: BHK tk-ts 13, transient co-transfection; membranes for the SPA, whole cells for the species-specific assays; details: for ratio hCTR/hAMY3R: ratio of binding IC50 values
T1 sequence (P30988 25-474): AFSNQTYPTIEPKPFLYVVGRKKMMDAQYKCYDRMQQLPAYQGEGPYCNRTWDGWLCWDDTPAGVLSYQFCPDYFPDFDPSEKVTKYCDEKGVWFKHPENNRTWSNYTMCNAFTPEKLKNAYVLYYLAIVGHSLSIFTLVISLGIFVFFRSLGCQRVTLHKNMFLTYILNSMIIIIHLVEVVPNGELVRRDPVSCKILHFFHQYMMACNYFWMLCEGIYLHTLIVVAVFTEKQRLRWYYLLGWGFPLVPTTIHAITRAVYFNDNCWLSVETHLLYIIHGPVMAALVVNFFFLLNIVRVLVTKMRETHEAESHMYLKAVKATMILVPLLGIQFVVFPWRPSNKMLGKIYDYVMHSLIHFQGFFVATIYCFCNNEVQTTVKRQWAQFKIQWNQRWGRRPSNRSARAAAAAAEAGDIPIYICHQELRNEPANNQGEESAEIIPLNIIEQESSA
T1 sequence (O60896 24-148 partner): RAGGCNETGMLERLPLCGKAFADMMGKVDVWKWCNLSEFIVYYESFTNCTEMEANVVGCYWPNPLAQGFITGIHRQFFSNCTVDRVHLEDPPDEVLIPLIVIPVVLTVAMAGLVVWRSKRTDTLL
Method: The apparent binding affinities were determined using a scintillation proximity assay with beads from PerkinElmer and cell membranes containing the AMY3R or CTRs. […] Membranes were harvested and membranes were prepared and kept at −80 °C until use. The assay was performed in a 384-well Optiplate (PerkinElmer). Membranes were mixed with scintillation proximity assay beads in a 1:1 ratio. […] Samples were analyzed on a TopCounter (Packard). The IC50 values were calculated using GraphPad Prism. See Supporting Information S7: SAR Screening Assay Methods (Binding Assays (Human and Rat)) for more information.
Binding Assays (Human and Rat). Brief descriptions of the methods used to determine binding affinities for SAR analysis are described below. Curves and IC50 values were plotted and calculated in GraphPad Prism using nonlinear regression (one site binding competition analysis), with pIC50 values […]
values were used to calculate the binding affinity ratios in order to express the selectivity of compounds for the AMY3R versus the CTR.
CTR Binding Assay. The binding assay was performed using scintillation proximity assay (SPA) beads (RPNQ0001) from PerkinElmer and cell membranes containing either the hCTR or rCTR. BHK […]
(§1) Membranes were prepared in the following way: the cells were rinsed with PBS and incubated with Versene for approximately 5 min before harvesting. The cells were flushed with PBS and the cell-suspension was centrifuged for 5 min at 1000 rpm. Cells were homogenized (Ultra Turrax) in a buffer […]
containing 20 mM Na-HEPES and 0.1 mM EDTA (pH 7.4, buffer 2). The resulting pellet was re-suspended in buffer 2 and protein concentration was measured (BCA protein assay, Pierce). The homogenate was kept cold during the whole procedure. The membranes were stored at –80 °C until […]
The binding assay was performed in a 384-well Optiplate (PerkinElmer) in a total volume of 40 μL.
Membranes were mixed with SPA beads in a 1:1 ratio. […]
mg/well. Test compounds were dissolved in DMSO and further diluted in assay buffer (50 mM HEPES, pH 7.4, 1 mM CaCl2, 5 mM MgCl2, 0.1% ovalbumin, and 0.02% Tween-20).
Calcitonin (NEX422 PerkinElmer) was dissolved in assay buffer and added to the Optiplate at a final […]
prior to centrifugation (1500 rpm, 10 min). Samples were analyzed on TopCounter (Packard).
AMY3R Binding Assay. The binding assay was performed using SPA beads (RPNQ0001) from PerkinElmer and cell membranes containing either the hAMY3R or rAMY3R. BHK tk-ts 13 cells were […]
as §1, with “and cultured as described above. Membranes” for “Membranes”, “buffer containing 20 mM Na-HEPES and 10 mM EDTA (pH 7.4), and” for “buffer”
The resulting pellet was re-suspended, homogenized, and
7.4, buffer 2). The resulting pellet was re-suspended in buffer 2 and protein concentration was measured (BCA protein assay, Pierce). The homogenate was kept cold during the whole procedure.
The membranes were stored at –80 °C until use.
Membranes were mixed with SPA beads in a 1:1 ratio. The final concentration of SPA beads was 0.05 mg/well. Test compounds were dissolved in DMSO and further diluted in assay buffer (50 mM […]
rAMY (NEX448 PerkinElmer) was dissolved in assay buffer and added to the Optiplate at a final

[1] = HMWP content by size-exclusion chromatography; assay type: physicochemical; details: covalent dimers and polymers prior to fibril formation testing, SEC, % of total absorbance area at 215 nm
Procedure, shortened: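 Amylin analogs analysed before fibril-formation testing by isocratic SEC in 0.5 M NaCl, 10 mM sodium dihydrogen phosphate, 5 mM ortho-phosphoric acid, 50% (v/v) 2-propanol. HMWP (covalent dimers/polymers) given as peak absorbance area percentage of total, assuming equal extinction coefficients for HMWP and main peak.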

[2] = SPA binding assay, Tables S13 and S15, read-out: hAMY3R pIC50 (converted)
[3] = SPA, BHK cell membranes, 125I-rat amylin, 120 min 25 °C, read-out: hAMY3R IC50

| Compound | IC50 (hAMY3R; [2]) | IC50 (hAMY3R; [3]) | ratio hCTR/hAMY3R (hAMY3R) | HMWP ([1]; analogs 1–9 (pH 7.5 series)) | HMWP ([1]; analogs 10–21 (pH 4.0 series)) | hAMY3R pIC50 (hAMY3R; SPA binding assay, Tables S13 and S15) |
| --- | --- | --- | --- | --- | --- | --- |
| CC(C)C[C@H](NC(=O)[C@H](CCCNC(=N)N)NC(=O)[C@H](CCC(N)=O)NC(=O)[C@@H](NC(=O)[C@H](C)NC(=O)[C@@H]1CSSC[C@H](NC(=O)[C@@H](N)CCCCNC(=O)CC[C@H](NC(=O)CC[C@H](NC(=O)CCCCCCCCCCCCCCCCCCC(=O)O)C(=O)O)C(=O)O)C(=O)N[C@@H](CC(N)=O)C(=O)N[C@@H]([C@@H](C)O)C(=O)N[C@@H](C)C(=O)N[C@@H]([C@@H](C)O)C(=O)N1)[C@@H](C)O)C(=O)N[C@@H](C)C(=O)N[C@@H](CC(=O)O)C(=O)N[C@@H](Cc1ccccc1)C(=O)N[C@@H](CC(C)C)C(=O)N[C@@H](CCCNC(=N)N)C(=O)N[C@@H](Cc1c[nH]cn1)C(=O)N[C@@H](CO)C(=O)N[C@@H](CO)C(=O)N1CCC[C@H]1C(=O)N[C@@H](CC(N)=O)C(=O)N[C@@H](Cc1ccccc1)C(=O)NCC(=O)N[C@@H](C)C(=O)N1CCC[C@H]1C(=O)N[C@@H](CC(C)C)C(=O)N[C@@H](CO)C(=O)N[C@@H](CO)C(=O)N[C@H](C(=O)N[C@@H](CC(N)=O)C(=O)N[C@H](C(=O)NCC(=O)N[C@@H](CO)C(=O)N[C@@H](CC(=O)O)C(=O)N[C@H](C(=O)N[C@@H](Cc1ccc(O)cc1)C(N)=O)[C@@H](C)O)C(C)C)[C@@H](C)O [Peptide 5] (H-K([γGlu-γGlu-C20 diacid])CNTATCATQRLADFLRHSSPNFGAPLSSTNVGSDTY-NH2; disulfide 2-7) | 1.12 nM | 1.12 nM | 27 | 7% | – | – |
| CC[C@H](C)[C@H](NC(=O)[C@H](C)NC(=O)CNC(=O)[C@H](Cc1ccccc1)NC(=O)[C@H](CC(N)=O)NC(=O)[C@@H]1CCCN1C(=O)[C@H](CO)NC(=O)[C@H](CO)NC(=O)[C@H](Cc1c[nH]cn1)NC(=O)[C@H](CCCNC(=N)N)NC(=O)[C@H](CC(C)C)NC(=O)[C@H](Cc1ccccc1)NC(=O)[C@H](CC(N)=O)NC(=O)[C@H](C)NC(=O)[C@H](CC(C)C)NC(=O)[C@H](CCCNC(=N)N)NC(=O)[C@H](CCC(N)=O)NC(=O)[C@@H](NC(=O)[C@H](C)NC(=O)[C@@H]1CSSC[C@H](NC(=O)[C@H](CCCCN)NC(=O)CC[C@H](NC(=O)CCCCCCCCCCCCCCCCCCC(=O)O)C(=O)O)C(=O)N[C@@H](CC(N)=O)C(=O)N[C@@H]([C@@H](C)O)C(=O)N[C@@H](C)C(=O)N[C@@H]([C@@H](C)O)C(=O)N1)[C@@H](C)O)C(=O)N1CCC[C@H]1C(=O)N[C@@H](CO)C(=O)N[C@@H](CO)C(=O)N[C@H](C(=O)N[C@@H](CC(N)=O)C(=O)N[C@H](C(=O)NCC(=O)N[C@@H](Cc1c[nH]cn1)C(=O)N[C@@H](CC(N)=O)C(=O)N[C@H](C(=O)N[C@@H](Cc1ccc(O)cc1)C(N)=O)[C@@H](C)O)C(C)C)[C@@H](C)O [Peptide 17] | 0.479 nM | 0.484 nM | 29 | – | 1.7% | – |
| CC[C@H](C)[C@H](NC(=O)[C@H](C)NC(=O)CNC(=O)[C@H](Cc1ccccc1)NC(=O)[C@H](CC(N)=O)NC(=O)[C@@H]1CCCN1C(=O)[C@H](CO)NC(=O)[C@H](CO)NC(=O)[C@H](Cc1c[nH]cn1)NC(=O)[C@H](CCCNC(=N)N)NC(=O)[C@H](CC(C)C)NC(=O)[C@H](Cc1ccccc1)NC(=O)[C@H](CC(N)=O)NC(=O)[C@H](C)NC(=O)[C@H](CC(C)C)NC(=O)[C@H](CCCNC(=N)N)NC(=O)[C@H](CCC(N)=O)NC(=O)[C@@H](NC(=O)[C@H](C)NC(=O)[C@@H]1CSSC[C@H](NC(=O)[C@H](CCCCN)NC(=O)COCCOCCNC(=O)CC[C@H](NC(=O)CCCCCCCCCCCCCCCCCCC(=O)O)C(=O)O)C(=O)N[C@@H](CC(N)=O)C(=O)N[C@@H]([C@@H](C)O)C(=O)N[C@@H](C)C(=O)N[C@@H]([C@@H](C)O)C(=O)N1)[C@@H](C)O)C(=O)N1CCC[C@H]1C(=O)N[C@@H](CO)C(=O)N[C@@H](CO)C(=O)N[C@H](C(=O)N[C@@H](CC(N)=O)C(=O)N[C@H](C(=O)NCC(=O)N[C@@H](CO)C(=O)N[C@@H](Cc1c[nH]cn1)C(=O)N[C@H](C(=O)N[C@@H](Cc1ccc(O)cc1)C(N)=O)[C@@H](C)O)C(C)C)[C@@H](C)O [Peptide 18] ({C20 diacid-γGlu-AEEA}-KCNTATCATQRLANFLRHSSPNFGAIPSSTNVGSHTY-NH2; disulfide 2-7; N-terminus assumed) | – | – | 19 | – | 3.5% | – |
| CC[C@H](C)[C@H](NC(=O)[C@H](C)NC(=O)CNC(=O)[C@H](Cc1ccccc1)NC(=O)[C@H](CC(N)=O)NC(=O)[C@@H]1CCCN1C(=O)[C@H](CO)NC(=O)[C@H](CO)NC(=O)[C@H](Cc1c[nH]cn1)NC(=O)[C@H](CCCNC(=N)N)NC(=O)[C@H](CC(C)C)NC(=O)[C@H](Cc1ccccc1)NC(=O)[C@H](CC(N)=O)NC(=O)[C@H](C)NC(=O)[C@H](CC(C)C)NC(=O)[C@H](CCCNC(=N)N)NC(=O)[C@H](CCC(N)=O)NC(=O)[C@@H](NC(=O)[C@H](C)NC(=O)[C@@H]1CSSC[C@H](NC(=O)[C@H](CCCCN)NC(=O)CC[C@H](NC(=O)CCCCCCCCCCCCCCCCCCC(=O)O)C(=O)O)C(=O)N[C@@H](CC(N)=O)C(=O)N[C@@H]([C@@H](C)O)C(=O)N[C@@H](C)C(=O)N[C@@H]([C@@H](C)O)C(=O)N1)[C@@H](C)O)C(=O)N1CCC[C@H]1C(=O)N[C@@H](CO)C(=O)N[C@@H](CO)C(=O)N[C@H](C(=O)N[C@@H](CC(N)=O)C(=O)N[C@H](C(=O)NCC(=O)N[C@@H](CCCNC(=N)N)C(=O)N[C@@H](CC(N)=O)C(=O)N[C@H](C(=O)N[C@@H](Cc1ccc(O)cc1)C(N)=O)[C@@H](C)O)C(C)C)[C@@H](C)O [Peptide 16] | – | 0.662 nM | 29 | – | 2.2% | 9.18 |
